This assay addresses Recombinant Human (rh) DPP1 (Homo sapiens, UniProt P53634). Put plainly: Fluorescence Assay for Recombinant Human (rh) DPP1. Conditions: rhDPP1; substrate H-Gly-Arg-AMC; pH5.0; 30 min pre-incubation, 60 min reaction at 22° C.; highest concentration 10 μM; read-out: DPP1 activity, pIC50 (converted). It counts as biochemical. In short, it runs like this: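 Release of AMC from 100 μM H-Gly-Arg-AMC by rhDPP1 ([…]) in 25 mM piperazine pH 5.0, 50 mM NaCl, 5 mM DTT, 0.01% Triton X-100, 1% DMSO, 22 °C. Inhibitors (12-point half-log, top 10 μM) preincubated 30 min, reaction 60 min, fluorescence at 350/450 nm; pIC50 from 4-parameter logistic fit.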

Structures can show the parent of a compound that is named as a salt.

Sequence of Recombinant Human (rh) DPP1 (P53634 25-463): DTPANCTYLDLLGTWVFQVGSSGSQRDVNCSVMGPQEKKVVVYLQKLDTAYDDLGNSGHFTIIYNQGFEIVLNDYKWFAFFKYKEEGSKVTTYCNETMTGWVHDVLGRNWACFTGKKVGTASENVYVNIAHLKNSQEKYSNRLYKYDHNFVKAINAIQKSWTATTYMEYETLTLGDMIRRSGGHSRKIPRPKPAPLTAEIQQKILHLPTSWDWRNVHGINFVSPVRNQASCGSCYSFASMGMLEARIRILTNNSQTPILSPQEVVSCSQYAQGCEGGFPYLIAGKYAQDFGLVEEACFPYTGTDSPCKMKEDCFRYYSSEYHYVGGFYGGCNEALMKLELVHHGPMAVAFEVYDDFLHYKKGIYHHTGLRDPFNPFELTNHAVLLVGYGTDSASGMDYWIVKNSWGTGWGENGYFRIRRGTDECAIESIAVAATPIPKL

As for `CN(C)S(=O)(=O)c1cccc(-c2ccc(C[C@@H](C#N)NC(=O)[C@@H]3CCCCN3)cc2)c1` [Example 87, (S)-N-((S)-1-Cyano-2-(3′-(N,N-dimethylsulfamoyl)biphenyl-4-yl)ethyl)piperidine-2-carboxamide Trifluoroacetate], the IC50 is 50.1 nM.

In the case of `N#C[C@H](Cc1ccc(-c2cccc(S(=O)(=O)N3CCCC3)c2)cc1)NC(=O)[C@@H]1CCCCN1` [Example 88, (S)-N-((S)-1-Cyano-2-(3′-(pyrrolidin-1-ylsulfonyl)biphenyl-4-yl)ethyl)piperidine-2-carboxamide Trifluoroacetate], the IC50 was 63.1 nM. With `CS(=O)(=O)NCc1cccc(-c2ccc(C[C@@H](C#N)NC(=O)[C@@H]3CCCCN3)cc2)c1` [Example 89, (S)-N-((S)-1-Cyano-2-(3′-(methylsulfonamidomethyl)biphenyl-4-yl)ethyl)piperidine-2-carboxamide Trifluoroacetate], the IC50 was 63.1 nM.

In the case of `CC(=O)NCc1cccc(-c2ccc(C[C@@H](C#N)NC(=O)[C@@H]3CCCCN3)cc2)c1` [Example 90, (S)-N-((S)-2-(3′-(Acetamidomethyl)biphenyl-4-yl)-1-cyanoethyl)-piperidine-2-carboxamide Trifluoroacetate], the IC50 is 126 nM. For `N#CC1CCN(S(=O)(=O)c2ccc(-c3ccc(C[C@@H](C#N)NC(=O)[C@@H]4CCCCN4)cc3)cc2)CC1` [Example 91, (S)-N-((S)-1-Cyano-2-(4′-(4-cyanopiperidin-1-ylsulfonyl)biphenyl-4-yl)ethyl)piperidine-2-carboxamide Trifluoroacetate], the IC50 was 12.6 nM. For `CN1CCN(S(=O)(=O)c2ccc(-c3ccc(C[C@@H](C#N)NC(=O)[C@@H]4CCCCN4)cc3)cc2)CC1` [Example 95, (S)-N-((S)-1-Cyano-2-(4′-(4-methylpiperazin-1-ylsulfonyl)biphenyl-4-yl)ethyl)piperidine-2-carboxamide Trifluoroacetate] the value was 3.16 nM; for `Cn1c(=O)oc2ccc(-c3ccc(C[C@@H](C#N)NC(=O)[C@@H]4CCCCN4)cc3)cc21` [Example 96, (S)-N-((S)-1-Cyano-2-(4-(3-methyl-2-oxo-2,3-dihydrobenzo[d]oxazol-5-yl)phenyl)ethyl)piperidine-2-carboxamide], 7.94 nM; for `COCCn1c(=O)oc2ccc(-c3ccc(C[C@@H](C#N)NC(=O)[C@@H]4CCCCN4)cc3)cc21` [Example 97, (S)-N-((S)-1-Cyano-2-(4-(3-(2-methoxyethyl)-2-oxo-2,3-dihydrobenzo[d]-oxazol-5-yl)phenyl)ethyl)piperidine-2-carboxamide], 15.8 nM. `Cn1c(=O)sc2cc(-c3ccc(C[C@@H](C#N)NC(=O)[C@@H]4CCCCN4)cc3)ccc21` [Example 98, (S)-N-((S)-1-Cyano-2-(4-(3-methyl-2-oxo-2,3-dihydrobenzo[d]thiazol-6-yl)phenyl)ethyl)piperidine-2-carboxamide]: the IC50 is 50.1 nM. With `N#C[C@H](Cc1ccc(-c2ccc3c(c2)sc(=O)n3CCO)cc1)NC(=O)[C@@H]1CCCCN1` [Example 99, (S)-N-((S)-1-Cyano-2-(4-(3-(2-hydroxyethyl)-2-oxo-2,3-dihydrobenzo[d]thiazol-6-yl)phenyl)ethyl)piperidine-2-carboxamide], the IC50 was 63.1 nM. In the case of `N#Cc1ccc(-c2cccc(C[C@@H](C#N)NC(=O)[C@@H]3CCCCN3)c2)cc1` [Example 100, (S)-N-((S)-1-Cyano-2-(4′-cyanobiphenyl-3-yl)ethyl)piperidine-2-carboxamide Trifluoroacetate], the IC50 was 1000 nM. For `CS(=O)(=O)c1cc(-c2ccc(C[C@@H](C#N)NC(=O)[C@@H]3CCCCN3)cc2)ccc1CC#N` [Example 101, (S)-N-((S)-1-Cyano-2-(4′-(cyanomethyl)-3′-(methylsulfonyl)biphenyl-4-yl)ethyl)-piperidine-2-carboxamide Trifluoroacetate], the IC50 was 39.8 nM. Take `N#C[C@H](Cc1ccc(S(=O)(=O)c2ccccc2)cc1)NC(=O)[C@@H]1CCCCN1` [Example 102, (S)-N-((S)-1-Cyano-2-(4-(phenylsulfonyl)phenyl)ethyl)piperidine-2-carboxamide]: the IC50 was 3160 nM. For the molecule `N#Cc1ccc(-c2ccc([C@H]3C[C@@]3(C#N)NC(=O)[C@@H]3CCCCN3)cc2)cc1` [Example 103, (S)-N-((1R,2R)-1-Cyano-2-(4′-cyanobiphenyl-4-yl)cyclopropyl)piperidine-2-carboxamide Trifluoroacetate], the IC50 was 158 nM. For `N#C[C@@]1(NC(=O)[C@@H]2CCCCN2)C[C@@H]1c1ccc(-c2ccc(S(=O)(=O)N3CCC3)cc2)cc1` [Example 104, (S)-N-((1R,2R)-2-(4′-(Azetidin-1-ylsulfonyl)biphenyl-4-yl)-1-cyanocyclopropyl)piperidine-2-carboxamide Trifluoroacetate] the value was 79.4 nM; for `N#C[C@H](Cc1ccc(-c2ccc(OC(F)(F)F)cc2)cc1)NC(=O)[C@@H]1CCCCN1` [Example 105, (S)-N-((S)-1-Cyano-2-(4′-(trifluoromethoxy)biphenyl-4-yl)ethyl)piperidine-2-carboxamide], 20 nM. As for `CS(=O)(=O)c1ccc(-c2ccc(C[C@@H](C#N)NC(=O)[C@@H]3CCCCN3)cc2)cc1` [Example 106, (S)-N-((S)-1-Cyano-2-(4′-(methylsulfonyl)biphenyl-4-yl)ethyl)piperidine-2-carboxamide], the IC50 was 12.6 nM. With `CCN1CCN(S(=O)(=O)c2ccc(-c3ccc(CC(C#N)NC(=O)[C@@H]4CCCCN4)cc3)cc2)CC1` (stereo partly drawn) [Example 107, ((2S)-N-(1-Cyano-2-(4′-(4-ethylpiperazin-1-ylsulfonyl)biphenyl-4-yl)ethyl)piperidine-2-carboxamide Ditrifluoroacetate], the IC50 was 5.01 nM. On to `CN1CCCN(S(=O)(=O)c2ccc(-c3ccc(CC(C#N)NC(=O)[C@@H]4CCCCN4)cc3)cc2)CC1` (stereo partly drawn) [Example 108, (2S)-N-(1-Cyano-2-(4′-(4-methyl-1,4-diazepan-1-ylsulfonyl)biphenyl-4-yl)ethyl)piperidine-2-carboxamide Ditrifluoroacetate], for which the IC50 is 31.6 nM. Under `N#C[C@H](Cc1ccc(-c2cccc(CN3CCOCC3)c2)cc1)NC(=O)[C@@H]1CCCCN1` [Example 109, (S)-N-((S)-1-Cyano-2-(3′-(morpholinomethyl)biphenyl-4-yl)ethyl)piperidine-2-carboxamide Ditrifluoroacetate] stands 158 nM. Take `N#C[C@H](Cc1ccc(-c2ccc3c(c2)CCNC3)cc1)NC(=O)[C@@H]1CCCCN1` [Example 110, (S)-N-((S)-1-Cyano-2-(4-(1,2,3,4-tetrahydroisoquinolin-6-yl)phenyl)ethyl)piperidine-2-carboxamide Ditrifluoroacetate]: the IC50 is 158 nM.

These data come from patent US7902181B2, “Compounds 010” (AstraZeneca AB, priority 2007, dated 2011).
